Experimental data taken from patent US12516056B2, “Compounds for inhibition of janus kinase 1” (MANKIND PHARMA LTD., priority 2019, dated 2026).

What was measured:
Recombinant JAK1 = target: T1, Recombinant JAK1 (Homo sapiens, UniProt P23458); experiment: JAK biochemical assay (LANCE Ultra TR-FRET), JAK1; conditions: recombinant JAK1, TR-FRET; read-out: Biochemical Assay (μM) JAK1
T1 construct: purchased Carna Biosciences
Procedure, shortened: (§1)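 TR-FRET read-out of ULight substrate phosphorylation by recombinant kinase gives % inhibition relative to vehicle. The assay buffer is HEPES pH 7.5 with EGTA, MgCl2, DTT and Tween-20.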

Recombinant JAK2 = target: T2, Recombinant JAK2 (Homo sapiens, UniProt O60674); experiment: JAK biochemical assay (LANCE Ultra TR-FRET), JAK2; conditions: recombinant JAK2, TR-FRET; read-out: Biochemical Assay (μM) JAK2
T2 construct: purchased Carna Biosciences
Procedure, shortened: as §1

Recombinant JAK3 = target: T3, Recombinant JAK3 (Homo sapiens, UniProt P52333); experiment: JAK biochemical assay (LANCE Ultra TR-FRET), JAK3; conditions: recombinant JAK3, TR-FRET; read-out: Biochemical Assay (μM) JAK3
T3 construct: purchased Carna Biosciences
T3 sequence (P52333 1-1124): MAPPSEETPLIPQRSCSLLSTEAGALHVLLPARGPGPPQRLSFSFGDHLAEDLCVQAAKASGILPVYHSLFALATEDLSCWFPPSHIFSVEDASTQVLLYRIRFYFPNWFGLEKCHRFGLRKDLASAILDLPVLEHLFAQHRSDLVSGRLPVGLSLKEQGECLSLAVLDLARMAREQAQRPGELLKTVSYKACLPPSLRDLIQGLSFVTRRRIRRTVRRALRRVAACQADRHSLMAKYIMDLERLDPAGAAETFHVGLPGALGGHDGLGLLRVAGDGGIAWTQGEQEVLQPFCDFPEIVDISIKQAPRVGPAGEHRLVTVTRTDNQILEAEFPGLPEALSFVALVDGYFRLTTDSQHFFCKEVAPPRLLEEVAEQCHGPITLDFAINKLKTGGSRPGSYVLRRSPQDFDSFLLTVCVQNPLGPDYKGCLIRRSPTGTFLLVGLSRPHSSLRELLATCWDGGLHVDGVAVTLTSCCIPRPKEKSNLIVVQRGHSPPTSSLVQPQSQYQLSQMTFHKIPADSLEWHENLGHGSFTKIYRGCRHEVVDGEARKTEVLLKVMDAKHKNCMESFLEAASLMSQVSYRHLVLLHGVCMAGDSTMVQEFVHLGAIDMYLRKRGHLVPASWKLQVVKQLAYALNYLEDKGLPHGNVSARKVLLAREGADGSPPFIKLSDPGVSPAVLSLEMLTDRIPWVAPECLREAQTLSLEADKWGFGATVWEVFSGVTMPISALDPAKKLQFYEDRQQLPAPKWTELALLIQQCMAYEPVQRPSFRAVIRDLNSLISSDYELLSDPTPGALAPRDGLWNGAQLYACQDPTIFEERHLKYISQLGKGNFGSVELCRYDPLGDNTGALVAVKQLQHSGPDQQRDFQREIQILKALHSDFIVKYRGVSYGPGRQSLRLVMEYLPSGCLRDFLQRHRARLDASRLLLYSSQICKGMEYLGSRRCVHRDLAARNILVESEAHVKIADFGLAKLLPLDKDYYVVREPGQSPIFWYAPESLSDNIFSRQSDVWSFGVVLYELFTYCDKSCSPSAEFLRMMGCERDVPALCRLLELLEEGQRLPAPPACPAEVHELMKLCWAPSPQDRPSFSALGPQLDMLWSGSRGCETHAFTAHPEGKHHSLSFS
Procedure, shortened: as §1

Recombinant TYK2 = target: T4, Recombinant TYK2 (Homo sapiens, UniProt P29597); experiment: JAK biochemical assay (LANCE Ultra TR-FRET), TYK2; conditions: recombinant TYK2, TR-FRET; read-out: Biochemical Assay (μM) TYK2
T4 construct: purchased Carna Biosciences
Procedure, shortened: as §1

[1] = system: STAT3 phosphorylation by IL-6 in TF-1 cells; experiment: JAK cellular assay: STAT3 phosphorylation by IL-6 in TF-1 cells (HTRF); format: cell-based; conditions: Homo sapiens, TF-1, TF-1 cells, IL-6 30 ng/ml, pSTAT3 HTRF; read-out: Cell Based Assay (μM) TF-1/IL-6/pSTAT3
Procedure, shortened: (§2)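 TF-1 cells starved overnight in low-serum OptiMEM, then 120,000/well in RPMI, preincubated with compound 30 min at 37 °C (0.2% DMSO final). Stimulation 20 min with IL-6 30 ng/ml (pSTAT3) or GMCSF 5 ng/ml (pSTAT5); lysate phospho-STAT by HTRF, unstimulated background subtracted.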

[2] = system: STAT5 phosphorylation by GMCSF in TF-1 cells; experiment: JAK cellular assay: STAT5 phosphorylation by GMCSF in TF-1 cells (HTRF); format: cell-based; conditions: Homo sapiens; TF-1 cells, GMCSF 5 ng/ml, pSTAT5 HTRF; read-out: Cell Based Assay (μM) TF-1/GMCSF/pSTAT5
Procedure, shortened: as §2

[3] = system: STAT5 phosphorylation by IL-2 in HT-2 cells; experiment: STAT5 phosphorylation by IL-2 in HT-2 cells (HTRF); format: cell-based; conditions: HT2, HT-2 cells, IL-2 50 U/ml, pSTAT5 HTRF; read-out: Cell Based Assay (μM) HT-2/IL-2/pSTAT5
Experimental: HT-2 cells were starved […] in RPMI phenol red with 10% fetal bovine serum for 4 hours in CO2 incubator maintained at 37° c. Compounds were diluted in DMSO and added to 96 well plate containing a final density of 1,20,000 cells per well. Cells and compounds are incubated for 30 minutes in CO2 incubator maintained at 37° C. and final DMSO concentration in cell based assay was 0.2%. Human recombinant cytokine, IL-2 (50 U/ml) was added to the plate containing cells and compound and incubated for 20 minutes with gentle tapping/shaking at every 5 minutes once. Compound mediated effects on STAT5 phosphorylation was measured in the lysates prepared by using CISBIO pSTAT5 detection kit by HTRF method. Background signal obtained from cells which were not activated with cytokines, was subtracted from vehicle controls and compound treated wells.

T4 sequence (P29597 whole entry): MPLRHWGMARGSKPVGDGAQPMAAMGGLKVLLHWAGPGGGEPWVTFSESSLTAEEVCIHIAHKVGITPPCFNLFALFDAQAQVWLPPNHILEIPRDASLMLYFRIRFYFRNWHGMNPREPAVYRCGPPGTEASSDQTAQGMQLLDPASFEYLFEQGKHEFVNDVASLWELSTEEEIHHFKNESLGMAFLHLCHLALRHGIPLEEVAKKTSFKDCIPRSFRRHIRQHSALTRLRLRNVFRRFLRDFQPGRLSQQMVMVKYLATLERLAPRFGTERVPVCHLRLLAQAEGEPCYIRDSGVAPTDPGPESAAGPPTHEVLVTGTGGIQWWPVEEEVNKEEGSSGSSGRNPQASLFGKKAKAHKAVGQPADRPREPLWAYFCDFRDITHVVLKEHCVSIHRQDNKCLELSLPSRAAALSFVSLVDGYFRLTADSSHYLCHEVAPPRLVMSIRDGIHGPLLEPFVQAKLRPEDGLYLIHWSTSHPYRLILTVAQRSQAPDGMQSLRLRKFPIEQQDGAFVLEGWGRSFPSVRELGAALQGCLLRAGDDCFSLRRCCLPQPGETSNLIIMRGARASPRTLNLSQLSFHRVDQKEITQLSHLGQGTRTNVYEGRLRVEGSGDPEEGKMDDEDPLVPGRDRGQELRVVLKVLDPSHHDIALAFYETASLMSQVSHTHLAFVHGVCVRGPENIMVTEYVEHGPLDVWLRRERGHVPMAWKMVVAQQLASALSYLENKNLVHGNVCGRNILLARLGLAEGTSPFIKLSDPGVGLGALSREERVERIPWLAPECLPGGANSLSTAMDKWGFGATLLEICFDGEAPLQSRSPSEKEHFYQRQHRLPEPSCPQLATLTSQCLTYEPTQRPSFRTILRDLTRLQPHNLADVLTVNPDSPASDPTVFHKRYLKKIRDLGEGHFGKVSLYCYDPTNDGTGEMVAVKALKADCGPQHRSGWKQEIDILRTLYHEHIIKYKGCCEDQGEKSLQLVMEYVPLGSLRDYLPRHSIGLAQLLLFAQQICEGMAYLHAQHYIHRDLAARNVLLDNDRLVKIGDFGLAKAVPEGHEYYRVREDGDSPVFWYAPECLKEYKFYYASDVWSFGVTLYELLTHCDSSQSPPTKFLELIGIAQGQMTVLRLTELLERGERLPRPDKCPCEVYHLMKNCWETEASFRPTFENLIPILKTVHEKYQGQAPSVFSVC
T2 sequence (O60674 whole entry): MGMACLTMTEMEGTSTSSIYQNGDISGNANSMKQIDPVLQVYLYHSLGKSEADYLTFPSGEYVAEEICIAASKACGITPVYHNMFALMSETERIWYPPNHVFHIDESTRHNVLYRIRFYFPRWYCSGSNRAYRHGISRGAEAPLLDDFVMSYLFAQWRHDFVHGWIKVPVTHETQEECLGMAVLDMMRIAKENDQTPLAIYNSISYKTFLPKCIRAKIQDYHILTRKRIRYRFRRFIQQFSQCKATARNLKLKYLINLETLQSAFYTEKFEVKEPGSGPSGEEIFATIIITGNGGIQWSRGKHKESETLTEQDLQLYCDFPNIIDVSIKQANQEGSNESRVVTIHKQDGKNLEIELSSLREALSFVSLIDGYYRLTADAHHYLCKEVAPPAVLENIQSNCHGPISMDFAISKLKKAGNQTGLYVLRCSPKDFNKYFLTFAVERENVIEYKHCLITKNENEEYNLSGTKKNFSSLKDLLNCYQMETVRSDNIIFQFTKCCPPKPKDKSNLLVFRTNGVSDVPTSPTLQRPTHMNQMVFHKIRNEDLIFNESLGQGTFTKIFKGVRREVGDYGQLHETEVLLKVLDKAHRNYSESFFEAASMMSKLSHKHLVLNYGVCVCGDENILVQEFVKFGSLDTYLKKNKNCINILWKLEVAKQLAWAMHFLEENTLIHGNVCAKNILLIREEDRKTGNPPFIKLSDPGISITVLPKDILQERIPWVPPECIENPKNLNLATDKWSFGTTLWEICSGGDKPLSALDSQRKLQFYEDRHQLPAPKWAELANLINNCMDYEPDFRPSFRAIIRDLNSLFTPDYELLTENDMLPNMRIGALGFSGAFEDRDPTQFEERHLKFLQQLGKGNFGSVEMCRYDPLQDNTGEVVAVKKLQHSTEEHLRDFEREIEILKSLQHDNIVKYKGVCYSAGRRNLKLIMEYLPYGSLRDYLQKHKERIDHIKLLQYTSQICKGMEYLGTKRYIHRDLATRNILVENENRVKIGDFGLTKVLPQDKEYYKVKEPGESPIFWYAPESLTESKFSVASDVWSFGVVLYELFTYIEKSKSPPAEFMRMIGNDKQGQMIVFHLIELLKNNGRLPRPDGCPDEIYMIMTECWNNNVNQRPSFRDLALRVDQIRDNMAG
T1 sequence (P23458 whole entry): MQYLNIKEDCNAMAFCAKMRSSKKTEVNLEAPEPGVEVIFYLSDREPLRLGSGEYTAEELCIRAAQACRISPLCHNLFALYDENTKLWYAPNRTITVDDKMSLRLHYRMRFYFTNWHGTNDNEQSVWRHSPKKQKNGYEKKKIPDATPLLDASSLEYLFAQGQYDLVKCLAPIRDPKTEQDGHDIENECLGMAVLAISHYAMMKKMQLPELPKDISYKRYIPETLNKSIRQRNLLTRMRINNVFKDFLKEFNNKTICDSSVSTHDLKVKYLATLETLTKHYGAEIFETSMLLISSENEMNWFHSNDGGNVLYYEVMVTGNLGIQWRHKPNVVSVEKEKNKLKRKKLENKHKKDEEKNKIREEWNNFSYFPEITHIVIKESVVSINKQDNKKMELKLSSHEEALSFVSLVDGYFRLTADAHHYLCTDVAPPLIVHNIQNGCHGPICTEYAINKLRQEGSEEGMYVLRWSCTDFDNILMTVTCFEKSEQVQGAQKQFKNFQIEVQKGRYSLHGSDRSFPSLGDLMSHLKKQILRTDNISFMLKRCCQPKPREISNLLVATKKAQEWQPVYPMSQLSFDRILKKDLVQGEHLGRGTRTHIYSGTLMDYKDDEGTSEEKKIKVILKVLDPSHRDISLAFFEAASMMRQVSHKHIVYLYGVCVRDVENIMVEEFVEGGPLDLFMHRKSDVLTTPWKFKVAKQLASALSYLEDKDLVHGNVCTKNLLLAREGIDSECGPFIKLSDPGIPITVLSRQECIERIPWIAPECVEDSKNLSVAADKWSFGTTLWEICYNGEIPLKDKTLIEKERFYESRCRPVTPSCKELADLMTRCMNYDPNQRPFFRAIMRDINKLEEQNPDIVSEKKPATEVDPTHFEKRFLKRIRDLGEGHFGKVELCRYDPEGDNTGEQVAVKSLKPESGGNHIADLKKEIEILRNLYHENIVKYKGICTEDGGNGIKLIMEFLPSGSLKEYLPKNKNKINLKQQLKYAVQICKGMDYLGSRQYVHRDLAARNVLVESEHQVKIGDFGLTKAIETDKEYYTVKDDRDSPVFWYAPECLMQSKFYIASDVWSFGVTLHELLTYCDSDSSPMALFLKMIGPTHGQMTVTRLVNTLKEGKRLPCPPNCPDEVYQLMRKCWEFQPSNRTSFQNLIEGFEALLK

| SMILES | IC50 (Recombinant JAK1) | IC50 (Recombinant JAK2) | IC50 (Recombinant JAK3) | IC50 (Recombinant TYK2) | IC50 [1] | IC50 [2] | IC50 [3] |
| --- | --- | --- | --- | --- | --- | --- | --- |
| CC(C)C(O)(c1ccc(-n2cc(-c3ccnc4[nH]cnc34)cn2)nc1)C(F)(F)F (stereo not shown) [Example 1129, 2-(6-(4-(3H-imidazo[4,5-b]pyridin-7-yl)-1H-pyrazol-1-yl)pyridin-3-yl)-1,1,1-trifluoro-3-methylbutan-2-ol] | < 0.1 µM | > 0.1 µM | < 0.1 µM | > 1 µM | > 0.5 µM | > 10 µM | > 1 µM |
| CS(=O)(=O)NCCC(c1ccc(-n2cc(-c3ccnc4[nH]cnc34)cn2)nc1)C(F)(F)F (stereo not shown) [Example 1143, N-(3-(6-(4-(3H-imidazo[4,5-b]pyridin-7-yl)-1H-pyrazol-1-yl)pyridin-3-yl)-4,4,4-trifluorobutyl)methanesulfonamide] | < 0.1 µM | < 0.1 µM | < 0.1 µM | > 1 µM | 0.47 µM | < 1 µM | 0.67 µM |
| FC(F)(F)C(c1ccc(-n2cc(-c3ccnc4[nH]cnc34)cn2)nc1)C1COC1 (stereo not shown) [Example 1136, 7-(1-(5-(2,2,2-trifluoro-1-(oxetan-3-yl)ethyl)pyridin-2-yl)-1H-pyrazol-4-yl)-3H-imidazo[4,5-b]pyridine] | < 0.1 µM | < 0.1 µM | < 0.1 µM | > 1 µM | 0.7 µM | > 1 µM | 0.8 µM |
| O[C@](c1ccc(-n2cc(-c3ccnc4[nH]cnc34)cn2)nc1)(C1CCN(C2COC2)C1)C(F)(F)F (stereo partly drawn) [Example 1243, (S)-1-(6-(4-(3H-imidazo[4,5-b]pyridin-7-yl)-1H-pyrazol-1-yl)pyridin-3-yl)-2,2,2-trifluoro-1-(1-(oxetan-3-yl)pyrrolidin-3-yl)ethanol] | < 0.1 µM | < 0.1 µM | < 0.1 µM | > 1 µM | > 1 µM | > 1 µM | > 1 µM |
| O=C(NC1CC1)NC(c1ccc(-n2cc(-c3ccnc4[nH]cnc34)cn2)nc1)C(F)(F)F (stereo not shown) [Example 1178, 1-(1-(6-(4-(3H-imidazo[4,5-b]pyridin-7-yl)-1H-Pyrazol-1-yl)pyridin-3-yl)-2,2,2-trifluoroethyl)-3-cyclopropylurea] | < 0.1 µM | < 0.1 µM | < 0.1 µM | > 1 µM | > 1 µM | 1 µM | > 1 µM |
| CNC(=O)CC(c1ccc(-n2cc(-c3ccnc4[nH]cnc34)cn2)nc1)C(F)(F)F (stereo not shown) [Example 1145, 3-(6-(4-(3H-imidazo[4,5-b]pyridin-7-yl)-1H-pyrazol-1-yl)pyridin-3-yl)-4,4,4-trifluoro-N-methylbutanamide] | < 0.1 µM | > 0.1 µM | < 0.1 µM | > 1 µM | > 0.5 µM | > 1 µM | > 1 µM |
| CS(=O)(=O)CCC(O)(c1ccc(-n2cc(-c3ccnc4[nH]cnc34)cn2)nc1)C(F)(F)F (stereo not shown) [Example 1223, 2-(6-(4-(3H-imidazo[4,5-b]pyridin-7-yl)-1H-pyrazol-1-yl)pyridin-3-yl)-1,1,1-trifluoro-4-(methylsulfonyl)butan-2-ol] | 0.002 µM | 0.015 µM | 0.004 µM | 0.39 µM | > 0.1 µM | > 1 µM | > 0.5 µM |
| CC(C)N1CCC([C@](O)(c2ccc(-n3cc(-c4ccnc5[nH]cnc45)cn3)nc2)C(F)(F)F)C1 (stereo partly drawn) [Example 1226, (S)-1-(6-(4-(3H-imidazo[4,5-b]pyridin-7-yl)-1H-pyrazol-1-yl)pyridin-3-yl)-2,2,2-trifluoro-1-(1-isopropylpyrrolidin-3-yl)ethanol] | < 0.01 µM | > 0.03 µM | > 0.03 µM | > 1 µM | > 0.5 µM | > 1 µM | > 0.75 µM |
| CNS(=O)(=O)CCC(c1ccc(-n2cc(-c3ccnc4[nH]cnc34)cn2)nc1)C(F)(F)F (stereo not shown) [Example 1142, 3-(6-(4-(3H-imidazo[4,5-b]pyridin-7-yl)-1H-pyrazol-1-yl)pyridin-3-yl)-4,4,4-trifluoro-N-methylbutane-1-sulfonamide] | < 0.1 µM | – | < 0.1 µM | > 1 µM | > 0.5 µM | > 1 µM | > 0.5 µM |
| O=C(NCC(F)(F)F)N1CCN(c2ccnc3[nH]c(=O)[nH]c23)CC1 [Example 1011, N-(2,2,2-trifluoroethyl)-4-(2,3-dihydro-2-oxo-1H-imidazo[4,5-b]pyridin-7-yl)piperazine-1-carboxamide] | – | > 1 µM | > 1 µM | > 1 µM | > 10 µM | > 10 µM | > 10 µM |
| O=C(Nc1ccncc1)N1CCN(c2ccnc3[nH]c(=O)[nH]c23)CC1 [Example 1014, 4-(2,3-dihydro-2-oxo-1H-imidazo[4,5-b]pyridin-7-yl)-N-(pyridin-4-yl)piperazine-1-carboxamide] | – | – | > 1 µM | > 1 µM | > 10 µM | > 10 µM | > 10 µM |
| CC(C)NC(=O)CCC(O)(c1ccc(-n2cc(-c3ccnc4[nH]cnc34)cn2)nc1)C(F)(F)F (stereo not shown) [Example 1238, 4-(6-(4-(3H-imidazo[4,5-b]pyridin-7-yl)-1H-pyrazol-1-yl)pyridin-3-yl)-5,5,5-trifluoro-4-hydroxy-N-isopropylpentanamide] | 0.003 µM | > 0.03 µM | – | > 0.1 µM | > 0.1 µM | 1 µM | > 0.1 µM |
| CC(C)N1CCC([C@](O)(c2ccc(-n3cc(-c4ccnc5[nH]cnc45)cn3)cc2)C(F)(F)F)C1 (stereo partly drawn) [Example 1251, (S)-1-(4-(4-(3H-imidazo[4,5-b]pyridin-7-yl)-1H-pyrazol-1-yl)phenyl)-2,2,2-trifluoro-1-(1-isopropylpyrrolidin-3-yl)ethanol] | < 0.1 µM | < 0.1 µM | < 0.1 µM | > 0.5 µM | 1 µM | – | > 2 µM |
| CNC(=O)CCC(c1ccc(-n2cc(-c3ccnc4[nH]cnc34)cn2)nc1)C(F)(F)F (stereo not shown) [Example 1148, 4-(6-(4-(3H-imidazo[4,5-b]pyridin-7-yl)-1H-pyrazol-1-yl)pyridin-3-yl)-5,5,5-trifluoro-N-methylpentanamide] | < 0.1 µM | < 0.1 µM | < 0.1 µM | > 1 µM | > 0.5 µM | – | > 1 µM |
| N#CCCC(c1ccc(-n2cc(-c3ccnc4[nH]cnc34)cn2)nc1)C(F)(F)F (stereo not shown) [Example 1156, 4-(6-(4-(3H-imidazo[4,5-b]pyridin-7-yl)-1H-pyrazol-1-yl)pyridin-3-yl)-5,5,5-trifluoropentanenitrile] | > 0.1 µM | > 0.5 µM | > 0.5 µM | > 1 µM | > 0.5 µM | – | > 1 µM |
